{"source": "patent US20260294922A1", "about": "“Inhibitors of JUN N-Terminal Kinases (JNK1, JNK2, and/or JNK3) and Mitogen-Activated Protein Kinases (MAPK8, MAPK9, and/or MAPK10) and Methods of Using Same” (Baylor College of Medicine, priority 2023, published 2026)", "key": {"[1]": {"test_system": "480 kinases", "assay": "Eurofins KINOMEscan selectivity profile", "assay_type": "binding", "conditions": "Bentamapimod and Tanzisertib at 1 μM"}, "[2]": {"assay": "Pharmacokinetics after intraperitoneal administration in mice", "assay_type": "in vivo", "conditions": "mouse, ip, 50 mg/kg, plasma", "from_the_text": "(§1) Based on stability and estimated half-life of compounds exposed to liver microsome in vitro, CDD-2728 was selected for PK evaluation."}, "[3]": {"assay": "Plasma ALT and AST after oral administration", "assay_type": "in vivo, mouse", "conditions": "24 h post-dose, individual mice 1-4"}, "[4]": {"test_system": "iHEEC", "assay": "Cell morphology, phospho-JNK and vimentin staining in iHEEC", "assay_type": "cell-based, human", "from_the_text": "FIGS. 28A-28C depict the impact of JNK inhibition on the cellular morphology and expression of surface marker, vimentin in iHEEC. […] Phospho-JNK staining in iHEEC can be either punctate staining in intracellular organelles or disperse staining through the cytoplasmic space of cells."}, "[5]": {"target": "T1, ERK2 (Homo sapiens, UniProt P28482)", "T1 construct": "purchased ThermoFisher (SelectScreen, outsourced service)", "T1 sequence (P28482 whole entry)": "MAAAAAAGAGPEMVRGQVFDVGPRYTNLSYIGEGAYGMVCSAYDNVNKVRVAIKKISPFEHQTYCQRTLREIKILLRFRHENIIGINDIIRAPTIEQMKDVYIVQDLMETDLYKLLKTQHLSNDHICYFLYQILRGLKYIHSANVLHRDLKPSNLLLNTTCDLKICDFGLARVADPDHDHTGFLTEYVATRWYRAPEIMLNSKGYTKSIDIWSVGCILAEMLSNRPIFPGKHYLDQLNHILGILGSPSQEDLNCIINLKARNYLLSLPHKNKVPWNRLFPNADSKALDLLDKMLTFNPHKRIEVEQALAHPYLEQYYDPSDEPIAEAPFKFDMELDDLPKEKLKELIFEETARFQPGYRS", "assay": "ThermoFisher SelectScreen, ERK2", "assay_type": "binding"}, "[6]": {"test_system": "primary human endometriotic stromal cells (patient 50)", "assay": "IL-1β-stimulated pro-inflammatory gene expression in primary endometriotic stromal cells, patient 50", "assay_type": "cell-based", "conditions": "patient 50, relative to CDD-939", "from_the_text": "FIGS. 14G-14H represent responses of primary human endometriotic stromal cells [from the endometrioma lesion] from endometriosis patient “50”.\nFIGS. 15A-15H provide replicate results of the response of primary human endometriotic stromal cells (derived from the lesions) obtained from endometriosis patient “50”. In each example. […] In each example, CDD-2728 inhibited IL-1β-stimulated pro-inflammatory biomarker responses in primary endometriotic stromal cell cultures. Lower concentrations of JNK inhibitors were required to reduce the proinflammatory response of IL-1β in stromal cells than the concentration of JNK-I in 12Z epithelial cells.\nAnother target tissue of JNK inhibitors in the treatment of endometriosis are endometriotic stromal cells. To further exemplify the relevance of the discoveries of novel JNK inhibitors for endometriosis, stromal cells obtained from the endometriotic lesions of a patient with endometriosis have been cultured. The compliant identifier for this patient is Eosis50. These cells represent stromal cells from an ovarian endometrioma. Similar to culture system described elsewhere herein, the inflammatory environment of peritoneal endometriosis was simulated by the addition of IL-1β and increasing concentrations of either bentamapimod or CDD-2728 were added to these stromal cell cultures. […]"}, "[7]": {"assay": "Pharmacokinetics after oral administration in mice", "assay_type": "in vivo", "conditions": "mouse, 50 mg/kg, plasma", "from_the_text": "as §1"}, "[8]": {"test_system": "12Z endometriotic epithelial cells", "assay": "IL-1β-stimulated pro-inflammatory gene expression (qPCR) in 12Z cells", "assay_type": "cell-based, human", "conditions": "relative to bentamapimod", "from_the_text": "These studies indicate that NanoBRET assays are an innovative technical platform to measure target engagement of CDD JNK inhibitors with the target JNK1, JNK2 or JNK3. As further evidence that JNK inhibitors address disease-relevant endpoints, biological responses of JNK inhibitors are provided herein, as measured in target tissue cellular models. 12Z immortalized endometriotic epithelial cells and patient-derived endometriotic stromal cells have been cultured with reference compound bentamapimod, CDD-2628, and CDD-2728. To exemplify the effects of CDD-2628 and CDD-2728 in the endometrial cell cultures, gene expression was measured using qPCR (expressed as fold-change relative to GAPDH, a housekeeping gene that is not affected by culture treatment effects) that reflect synthesis of inflammatory lipids (PTGS2), transformation of cells to a more migration and invasive potential (MMP-3) and chemoattractant cytokines to recruit pro-inflammatory immune cells (IL-6, IL-8).\nIn the culture systems employed in FIGS. 12A-12J, FIGS. 13A-13B, FIGS. 14A-14H, FIGS. 15A-15H, and FIGS. 16A-16F, the treatment of cells with IL-1β is used to mimic the peritoneal environment where IL-1β is most frequently measured at higher concentrations in patients with endometriosis (0.1 ng/mL-1 ng/mL) than in unaffected women (<0.01 ng/mL). The use of IL-1β to mimic the pro-inflammatory environment is a common method in cellular assays for endometriosis research. Although the concentrations of IL-1β in these cell cultures are higher than measured in peritoneal fluid, there are multiple other pro-inflammatory cytokines in peritoneal fluid that contribute to the pro-inflammatory environment.\nSpecifically, 12Z cells were plated at a density of 1×10^5 cells/well in a 12-well tissue culture plate, serum-starved overnight (17-18 h), pre-treated with vehicle (DMSO) or JNK inhibitor for 30 minutes, then stimulated with 10 ng/ml IL-1β in the presence or absence of the JNK inhibitors for 6 hours. After the 6-hour treatment, mRNA was extracted from the cells using the Qiagen RNEasy mini isolation kit and […] of mRNA was reverse transcribed into cDNA using the qScript cDNA Supermix (Quanta Biosciences). cDNA was amplified using SYBR Green Master Mix (Applied Biosystems) with quantitative Real Time PCR (BioRad CFX) using pre-designed and validated primers specific for genes encoding IL6, IL8, PTGS2/COX2, and MMP3 (BioRad). Relative quantification of these specific genes was calculated by the ΔΔCt method, normalizing their abundance relative to the internal housekeeping gene, GAPDH, followed by quantification relative to the vehicle-treated cells. Statistical analyses and visualizations were performed using a One Way ANOVA with a Tukey's multiple comparison post-hoc test on GraphPad Prism version 9."}, "[9]": {"test_system": "pSer63 and pSer73 Jun", "assay": "In-cell Western blot of Jun phosphorylation", "assay_type": "cell-based", "conditions": "0.1, 1 and 10 μM", "protocol": "The top section of the in-cell Western is pSer73 and the lower section is pSer63. Experiments were performed in triplicate for 3 concentrations (0.1 μM, 1 μM, and 10 μM) FIGS. 27B-27C: graphical summary of the in-cell Western blot is provided for pSer73 (FIG. 27B) and pSer63 (FIG. 27C)."}}, "note": "Values joined by “and” are separate entries in the source; they are usually repeats but may differ in a detail not shown here. Equal values may be shown once. “Also recorded” adds a separate entry of the source.", "data": [{"smiles": "CNCc1ccc(NC(=O)c2ccn3ncc(-c4cnc5[nH]ccc5c4)c3c2)cc1", "note": "[CDD-2346, N-(4-((methylamino)methyl)phenyl)-3-(1H-pyrrolo[2,3-b]pyridin-5-yl)pyrazolo[1,5-a]pyridine-5-carboxamide]", "values": [{"measurement": "KINOMEscan selectivity / inhibition", "setting": "[1]", "value": "selectivity of CDD-2346 was inadequate"}]}, {"smiles": "CN(C)C(=O)c1cc(NC(=O)c2cc3c(-c4cnc5[nH]ccc5c4)cccc3s2)ccc1O", "note": "[CDD-2728, N-(3-(dimethylcarbamoyl)-4-hydroxyphenyl)-4-(1H-pyrrolo[2,3-b]pyridin-5-yl)benzo[b]thiophene-2-carboxamide]", "values": [{"measurement": "AUC(0-inf)", "setting": "[2]", "value": "8.03 ± 2.52", "unit": "µM·h"}, {"measurement": "AUC(0-t)", "setting": "[2]", "value": "5.7 ± 2.53", "unit": "µM·h"}, {"measurement": "CL/F", "setting": "[2]", "value": 245, "unit": "mL/min/kg"}, {"measurement": "Cmax", "setting": "[2]", "value": "440 ± 190", "unit": "nM"}, {"measurement": "Tmax", "setting": "[2]", "value": "3 ± 1.15", "unit": "h"}, {"measurement": "MRT last", "setting": "[2]; read-out: MRT0-t", "value": "8.57 ± 1.33", "unit": "h"}, {"measurement": "MRT inf", "setting": "[2]; read-out: MRT0-∞", "value": "20.5 ± 13", "unit": "h"}, {"measurement": "half-life", "setting": "[2]; read-out: T1/2 (converted)", "value": "14.2 ± 8.92", "unit": "h"}, {"measurement": "half-life", "setting": "[2]; read-out: half-life, injected into the peritoneal cavity (converted)", "value": 14, "unit": "h"}, {"measurement": "ALT", "setting": "[3]", "value": "43.49 IU/L and 21.92 IU/L and 36.24 IU/L and 30.94 IU/L"}, {"measurement": "AST", "setting": "[3]", "value": "69.13 IU/L and 76.02 IU/L and 61.79 IU/L and 41.64 IU/L"}, {"measurement": "phospho-JNK staining", "setting": "[4]", "value": "reduce the intensity of phospho-JNK staining"}, {"measurement": "vimentin staining", "setting": "[4]", "value": "not a dramatic change in the vimentin staining"}, {"measurement": "Kd", "setting": "[5]", "value": 534, "unit": "nM"}, {"measurement": "inhibition of IL-6, IL-8, MMP-3 and PTGS2 gene expression", "setting": "[6]", "value": "effective inhibitor of IL-6 gene expression; also recorded: more effective inhibitor of the biomarkers IL-8, MMP-3, and PTGS2 gene expression than CDD-939; also recorded: superior efficacy and potency"}, {"measurement": "AUC(0-inf)", "setting": "[7]", "value": "3.03 ± 0.98", "unit": "µM·h"}, {"measurement": "AUC(0-t)", "setting": "[7]", "value": "2.95 ± 0.95", "unit": "µM·h"}, {"measurement": "CL/F", "setting": "[7]", "value": 650, "unit": "mL/min/kg"}, {"measurement": "Cmax", "setting": "[7]", "value": "1510 ± 530", "unit": "nM"}, {"measurement": "Tmax", "setting": "[7]", "value": "0.63 ± 0.25", "unit": "h"}, {"measurement": "half-life", "setting": "[7]", "value": "1.48 ± 0.32", "unit": "h"}, {"measurement": "MRT last", "setting": "[7]; read-out: MRT0-t", "value": "1.7 ± 0.34", "unit": "h"}, {"measurement": "MRT inf", "setting": "[7]; read-out: MRT0-∞", "value": "1.91 ± 0.44", "unit": "h"}, {"measurement": "IL-6 expression", "setting": "[8]", "value": "equally effective"}, {"measurement": "IL-8 expression", "setting": "[8]", "value": "more potent inhibitors of IL-8 expression than bentamapimod; also recorded: effectively suppressed IL-8 production"}, {"measurement": "MMP-3 expression", "setting": "[8]", "value": "more potent than CDD-939 at inhibiting MMP-3 expression; also recorded: more effective than bentamapimod"}, {"measurement": "PTGS2 expression", "setting": "[8]", "value": "more effective than bentamapimod"}, {"measurement": "Jun phosphorylation (pSer73, pSer63), relative to Tanzisertib", "setting": "[9]", "value": "more effective inhibitors of Jun phosphorylation than Tanzisertib"}]}]}
